In ChEMBL document CHEMBL1124410, “New antitumor monoclonal antibody-vinca conjugates LY203725 and related compounds: design, preparation, and representative in vivo activity” (J Med Chem, 1989) one finds IC50 data, which are given here for four compounds.

In assay [1] the test system is CCRF-CEM. As to the kind of experiment: In vitro inhibition of CCRF-CEM human leukemic lymphoblasts proliferation was determined. In kind it is functional, cell-based.
Assay [2] can be described thus: In vitro inhibition of P3UCLA human adenocarcinoma cell proliferation was determined in MTT proliferation assay. The assay is classed as functional. (In general: Tetrazolium dyes change colour on reduction, which living cells bring about.)

Values after ≈ are worked out from the molar mass of the structure shown.

For orientation: IC50 means the concentration that inhibits the measured activity by half. High values mean weaker potency in that assay, low ones greater potency in that assay. In the case of `CC[C@]1(O)CC2CN(CCc3c([nH]c4ccccc34)[C@@](C(=O)OC)(c3cc4c(cc3OC)N(C)C3C45CCN4CC=C[C@](CC)(C45)C(OC(=O)CCC(=O)O)[C@]3(O)C(=O)OC)C2)C1` (stereo partly specified), the IC50 in assay [1] is 1.4 µg/mL (≈ 1.61 µM); in assay [2] it was 0.003 µg/mL (≈ 0.00345 µM).
Consider `CC[C@]1(O)CC2CN(CCc3c([nH]c4ccccc34)[C@@](C(=O)OC)(c3cc4c(cc3OC)N(C)C3C45CCN4CC=C[C@](CC)(C45)C(OC(C)=O)[C@]3(O)C(=O)OC)C2)C1` (stereo partly specified), for which, in assay [1], the IC50 was 0.1 µg/mL (≈ 0.123 µM).
On to `CC[C@]1(O)C[C@@H]2CN(CCc3c([nH]c4ccccc34)[C@@](C(=O)OC)(c3cc4c(cc3OC)N(C)[C@H]3[C@@](O)(C(=O)NN)[C@H](O)[C@]5(CC)C=CCN6CC[C@]43[C@@H]65)C2)C1` [DESACETYLVINBLASTINEHYDRAZIDE], for which the IC50 in assay [1] is 0.03 µg/mL (≈ 0.039 µM); in assay [2] it was < 0.0003 µg/mL.
Compound `CC[C@]1(O)CC2CN(CCc3c([nH]c4ccccc34)[C@@](C(=O)OC)(c3cc4c(cc3OC)N(C)C3C45CCN4CC=C[C@](CC)(C45)C(O)[C@]3(O)C(=O)OC)C2)C1` (stereo partly specified) came in with a half-inhibitory concentration (IC50) in assay [2] of 0.0003 µg/mL (≈ 0.00039 µM).
